“Also recorded” adds a separate entry of the source.
How the values were obtained:
[1] = tested on: HaCaT immortalized keratinocytes; conditions: 10 μM; cited from earlier work
SERPINB12 = test: Upregulation of gene expression and/or activity, 1% naringenin: SERPINB12
Description: (§1) In certain embodiments, administration of a composition comprising naringenin leads to up-regulation of LCE5A, KRT77, ALOXE3, KRT1, HPGD, MUCL1, CASP14, WFDC12, KRT10, DNASE1L2, IL37, SERPINB12, HAL, UPK1A, CALML5, LCE2B, and/or MIR205. In certain embodiments, administration of a composition comprising naringenin leads to down-regulation of CCL11, CSF2, IL23A, IL11, BMP6, IL13RA2, C2CD4A, NR4A2, C2CD4B, FGF2, FARP4, GDF15, THBS1, HSPA1A, PTGS2, and/or DKK1. Tables 10 and 11 provide data for upregulation and downregulation respectively of certain genes after administration of compositions comprising 1% naringenin.
Serine protease inhibitor (SERPINB12) plays a role in protection of epithelial cells. The intracellular serine protease inhibitors (serpins) are an important family of proteins that protect cells form proteinase-mediated injury. SERPINB12 is broadly expressed and is likely to protect cells, including epithelial cells, from both endogenous and exogenous peptidases. In certain embodiments, compositions comprising naringenin leads to upregulation of SERPINB12, which leads to increase in protection of epithelial cells. In certain embodiments, the administration of composition comprising naringenin results in at least about 5 to about 20-fold upregulation of expression and/or activity of SERPINB12. […]

THBS1 = test: Downregulation of gene expression and/or activity, 1% naringenin: THBS1; conditions: negative = downregulation
Description: as §1

KRT10 = test: Upregulation of gene expression and/or activity, 1% naringenin: KRT10
Description: as §1
Keratin 10 (KRT10) is also involved in keratin production. Keratin is involved in increasing the barrier strength and resilience of the skin. Keratin 10 is produced in keratinocytes in the outer layer of the skin (the epidermis). In the fluid-filled space inside these cells (the cytoplasm), the keratin 10 protein partners with a similar protein, keratin 1 (produced from the KRT1 gene), to form molecules called keratin intermediate filaments. These filaments assemble into strong networks that provide strength and resiliency to the skin and protect it from being damaged by friction and other everyday physical stresses. […]

[2] = Solubility of naringenin in various solvents; assay type: physicochemical
Procedure: The invention recognizes that the solvent used for preparing naringenin compositions should be any solvent acceptable to be used in cosmetic formulations. In certain embodiments of the invention, naringenin is dissolved in a solvent selected from a group consisting of: dimethyl isosorbide, ethoxydiglycol, isopropyl lauryl sarcosinate, pentylene glycol, propanediol, 1,2-hexanediol, and/or butylene glycol. In certain preferred embodiments, naringenin is dissolved in dimethyl isosorbide. In certain embodiments, naringenin is dissolved in isopropyl lauryl sarcosinate. In certain embodiments, naringenin is dissolved in ethoxydiglycol. In certain embodiments, the solvent is a glycol. In certain embodiments, the glycol is selected from a group consisting of pentylene glycol, butylene glycol, and any combination thereof. In certain embodiments, the solvent is selected from a group consisting of: phenylpropanol, 1,2-hexanediol, propanediol, isopentyldiol, 1,2 heptanediol, and any combination thereof.
Table 1 provides the solubility data for naringenin in several solvents. […]

LCE5A = test: Upregulation of gene expression and/or activity, 1% naringenin: LCE5A
Description: as §1
Late cornified envelope protein 5A (LCE5A) is involved in formation of outer skin protective barrier. LCE5A may also be involved in keratinization. In certain embodiments, upregulation of expression and/or activity of LCE5A results in improved formation of the outer skin protective barrier. Thus, administration of compositions comprising naringenin, which leads to upregulation of LCE5A, results in increased skin barrier strength. In certain embodiments, the administration of composition comprising naringenin results in at least about 20 to about 50-fold upregulation of expression and/or activity of LCE5A. […]

UPK1A = test: Upregulation of gene expression and/or activity, 1% naringenin: UPK1A
Description: as §1
Uroplakin 1A (UPK1A) is involved in cell proliferation. The proteins in this family mediate signal transduction events that play a role in the regulation of cell development, activation, growth and motility. This encoded protein is found in the asymmetrical unit membrane (AUM) where it can complex with other transmembrane 4 superfamily proteins. UP1A may play a role in normal bladder epithelial physiology, possibly in regulating membrane permeability of superficial umbrella cells or in stabilizing the apical membrane through AUM/cytoskeletal interactions. In certain embodiments, compositions comprising naringenin leads to upregulation of UPK1A, which leads to increase cell proliferation, including the cells in the skin and the underlying tissues. […]

**Q.** For `O=C1C[C@@H](c2ccc(O)cc2)Oc2cc(O)cc(O)c21` [naringenin, (2S)-5,7-Dihydroxy-2-(4-hydroxyphenyl)-2,3-dihydro-4H-1-benzopyran-4-one], which “Protection from UVB-induced apoptosis” value [1] is on record?
**A.** protecting HaCaT immortalized keratinocytes from UVB-induced apoptosis

**Q.** And the “Fold-increase in expression and/or activity of SERPINB12” value (SERPINB12)?
**A.** ~13 fold

**Q.** And the “Fold-increase (downregulation table) THBS1” value (THBS1)?
**A.** −6 fold

**Q.** What about the “Fold-increase in expression and/or activity of KRT10” value (KRT10) of the same compound?
**A.** ~6 fold

**Q.** What about the “Solubility (in words)” value ([2]; in Helianthus Annuus (Sunflower) Seed Oil / sunflower oil) of the same compound?
**A.** insoluble in Helianthus Annuus (Sunflower) Seed Oil; also recorded: not soluble in sunflower oil

**Q.** What about the “Solubility (in words)” value ([2]; in water) of the same compound?
**A.** poorly soluble or insoluble in water

**Q.** What about the “Naringenin Solubility” value ([2]; solvent: 1,2 heptanediol) of the same compound?
**A.** 2.50 % w/w

**Q.** What about the “Naringenin Solubility” value ([2]; solvent: 1,2 hexanediol) of the same compound?
**A.** 2.50 % w/w

**Q.** And the “Naringenin Solubility” value ([2]; solvent: 1,2 propanediol)?
**A.** 0.00 % w/w

**Q.** And the “Naringenin Solubility” value ([2]; solvent: 3-methyl-1,3-butanediol)?
**A.** 0.00 % w/w

**Q.** What about the “Naringenin Solubility” value ([2]; solvent: Butylene glycol) of the same compound?
**A.** 2.50 % w/w

**Q.** What about the “Naringenin Solubility” value ([2]; solvent: C9-12 alkane) of the same compound?
**A.** 0.00 % w/w

**Q.** And the “Naringenin Solubility” value ([2]; solvent: C15-19 alkane)?
**A.** 0.00 % w/w

**Q.** What about the “Naringenin Solubility” value ([2]; solvent: Capric/caprylic triglyceride) of the same compound?
**A.** 0.00 % w/w

**Q.** What about the “Naringenin Solubility” value ([2]; solvent: Di(propylene glycol) dibenzoate) of the same compound?
**A.** 0.00 % w/w

**Q.** What about the “Naringenin Solubility” value ([2]; solvent: Dimethyl isosorbide) of the same compound?
**A.** 15.00 % w/w

**Q.** What about the “Naringenin Solubility” value ([2]; solvent: Ethoxydiglycol) of the same compound?
**A.** 20.00 % w/w

**Q.** And the “Naringenin Solubility” value ([2]; solvent: Isoamyl laurate)?
**A.** 0.00 % w/w

**Q.** What about the “Naringenin Solubility” value ([2]; solvent: Isopentyldiol) of the same compound?
**A.** 2.50 % w/w

**Q.** And the “Naringenin Solubility” value ([2]; solvent: Isopropyl lauryol sarcosinate)?
**A.** 10.00 % w/w

**Q.** What about the “Naringenin Solubility” value ([2]; solvent: Isopropyl myristate) of the same compound?
**A.** 0.00 % w/w

**Q.** And the “Naringenin Solubility” value ([2]; solvent: Neopentyl glycol diethylhexanoate)?
**A.** 0.00 % w/w

**Q.** And the “Naringenin Solubility” value ([2]; solvent: Oleyl alcohol)?
**A.** 0.00 % w/w

**Q.** What about the “Naringenin Solubility” value ([2]; solvent: Pentylene glycol) of the same compound?
**A.** 2.50 % w/w

**Q.** What about the “Naringenin Solubility” value ([2]; solvent: Phenylpropanol) of the same compound?
**A.** 5.00 % w/w

**Q.** What about the “Naringenin Solubility” value ([2]; solvent: Propanediol) of the same compound?
**A.** 2.50 % w/w

**Q.** And the “Naringenin Solubility” value ([2]; solvent: Squalene)?
**A.** 0.00 % w/w

**Q.** And the “Naringenin Solubility” value ([2]; solvent: Tri C12-C13 alkyl citrate)?
**A.** 0.00 % w/w

**Q.** What about the “Naringenin Solubility” value ([2]; solvent: Tributyl citrate) of the same compound?
**A.** 0.00 % w/w

**Q.** And the “Naringenin Solubility” value ([2]; solvent: Tributyl-O-acetylcitrate)?
**A.** 0.00 % w/w

**Q.** And the “Naringenin Solubility” value ([2]; solvent: Triethyl O-acetylcitrate)?
**A.** 0.00 % w/w

**Q.** What about the “Naringenin Solubility” value ([2]; solvent: Triethyl citrate) of the same compound?
**A.** 0.00 % w/w

**Q.** And the “Naringenin Solubility” value ([2]; solvent: Triisostearin)?
**A.** 0.00 % w/w

**Q.** And the “Naringenin Solubility” value ([2]; solvent: jojoba oil)?
**A.** 0.00 % w/w

**Q.** What about the “Naringenin Solubility” value ([2]; solvent: sunflower oil) of the same compound?
**A.** 0.00 % w/w

**Q.** And the “Fold-increase in expression and/or activity of LCE5A” value (LCE5A)?
**A.** ~33 fold

**Q.** What about the “Fold-increase in expression and/or activity of UPK1A” value (UPK1A) of the same compound?
**A.** ~10 fold

Source: patent US20260294770A1, “FORMULATIONS OF NARINGENIN” (DEBUT BIOTECHNOLOGY, INC., priority 2023, published 2026)
